How the values were obtained:
[1] = system: Saccharomyces cerevisiae cells expressing the catalytic domain of P. aeruginosa ExoA (ExoAc); experiment: Yeast-based compound screen; type: cell-based; conditions: compound 50 μM; w303 strain; growth restored
cholix toxin = cholix toxin (Vibrio cholerae, UniProt Q5EK40); experiment: biochemical; type: biochemical; conditions: for IC50: read-out: IC50; for Ki: read-out: Ki
WT ExoAc = WT ExoAc (Pseudomonas aeruginosa, UniProt P11439); experiment: biochemical; type: binding, P. aeruginosa; conditions: read-out: Kd
C38 cells = experiment: Mammalian C38 cell drug sensitivity assay (MTT); type: cell-based, Human; conditions: compound 50 μM
Method: The C38 cells were cultured in 25 cm^2 culture flasks containing LHC-8 media with 5% fetal bovine serum at 37° C. in 5% CO2 until 90-100% confluency. The cells were washed with phosphate-buffered saline (PBS) and then detached from the culture flask by treating the cells with Puck's Saline Solution containing 0.02% EDTA. The cell suspension was diluted to a final density of 1.0×10^5 cells/mL and 100-μL aliquots were used to seed a 96-well plate. The cells were then grown in the presence of 50 μM of inhibitor (nonpolar compounds required 0.5% DMSO for solubility).

Chain of WT ExoAc (P11439 430-638 limits assumed): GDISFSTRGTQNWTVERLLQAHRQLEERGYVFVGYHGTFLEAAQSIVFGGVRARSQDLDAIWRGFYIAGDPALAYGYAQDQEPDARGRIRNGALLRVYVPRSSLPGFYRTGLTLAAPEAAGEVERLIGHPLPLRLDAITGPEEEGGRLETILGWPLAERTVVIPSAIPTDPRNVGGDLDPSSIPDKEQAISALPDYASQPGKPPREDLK
Chain of cholix toxin (Q5EK40 33-666 limits assumed): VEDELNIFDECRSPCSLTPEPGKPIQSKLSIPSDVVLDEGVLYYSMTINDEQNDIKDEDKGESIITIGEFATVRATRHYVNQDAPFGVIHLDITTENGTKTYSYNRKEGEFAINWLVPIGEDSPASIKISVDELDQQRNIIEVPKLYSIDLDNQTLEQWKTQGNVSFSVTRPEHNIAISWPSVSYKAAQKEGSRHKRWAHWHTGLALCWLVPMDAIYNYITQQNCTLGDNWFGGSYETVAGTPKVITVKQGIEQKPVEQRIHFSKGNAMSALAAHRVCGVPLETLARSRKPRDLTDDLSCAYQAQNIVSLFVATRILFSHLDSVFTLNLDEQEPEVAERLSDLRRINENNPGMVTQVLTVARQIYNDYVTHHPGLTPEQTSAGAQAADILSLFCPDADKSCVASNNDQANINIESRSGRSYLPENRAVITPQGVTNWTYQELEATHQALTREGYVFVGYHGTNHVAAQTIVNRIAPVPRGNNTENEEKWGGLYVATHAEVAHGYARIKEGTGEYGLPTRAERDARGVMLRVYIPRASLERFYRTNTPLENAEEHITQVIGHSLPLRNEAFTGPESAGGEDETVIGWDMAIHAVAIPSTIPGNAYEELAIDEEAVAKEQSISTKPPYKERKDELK

Row | Compound | Protection in Yeast [1] | IC50 (cholix toxin) [nM] | Ki (cholix toxin) [nM] | Kd (WT ExoAc) [nM] | toxicity to C38 cells (C38 cells)
1 | CN(C)CCCOc1ccc(-c2nc3cccc4c3n2CCNC4=O)cc1 [Compound P2] | − (Compounds showing less than 5% growth were scored (−)) | 480 ± 40 | 63 ± 5 | 260 ± 10 | toxic
2 | CN1CCN(C2CCC3NC(O)C4CCCCC4C3N2)CC1 (stereo not drawn) [Compound P3] | − (Compounds showing less than 5% growth were scored (−)) | 690 ± 130 | 90 ± 17 | 1470 ± 30 | toxic
3 | O=c1[nH]nc2c3c(cccc13)N=CN2 [Compound P7] | − (Compounds showing less than 5% growth were scored (−)) | 908 ± 118 | 118 ± 7 | 680 ± 40 | toxic

From patent US20120142682A1, “ANT[…] INHIBITING BACTERIAL MONO-ADP-RIBOSYLT[…]” (UNIVERSITY OF GUELPH, priority 2010, published 2012)
